Results published in PubChem BioAssay (NCI).
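In this assay, cells in 96-well plates receive the compound at five concentrations for 48 hours. Endpoints are linearly interpolated between the surrounding concentrations. Here, GI50 denotes the concentration required for 50% inhibition of growth. TGI: concentration producing complete growth inhibition.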

Legend:
Assay in all cases: NCI anticancer screen, dose series, 48 h; in the data active = GI50 below about 0.43 µM; inactive = the rest
[1] = tested on: 786-0 renal
[2] = tested on: A498 renal
[3] = tested on: A549 NSCLC
[4] = tested on: ACHN renal
[5] = tested on: BT-549 breast
[6] = tested on: CAKI-1 renal
[7] = tested on: CCRF-CEM leukemia
[8] = tested on: COLO 205 colon
[9] = tested on: DU-145 prostate
[10] = tested on: EKVX NSCLC
[11] = tested on: HCC-2998 colon
[12] = tested on: HCT-116 colon
[13] = tested on: HCT-15 colon
[14] = tested on: HL-60(TB) leukemia
[15] = tested on: HOP-62 NSCLC
[16] = tested on: HOP-92 NSCLC
[17] = tested on: HT29 colon
[18] = tested on: IGROV1 ovarian
[19] = tested on: K-562 leukemia
[20] = tested on: KM12 colon
[21] = tested on: LOX IMVI melanoma
[22] = tested on: M14 melanoma
[23] = tested on: MALME-3M melanoma
[24] = tested on: MDA-MB-231 breast
[25] = tested on: MDA-MB-435
[26] = tested on: MOLT-4 leukemia
[27] = tested on: NCI-H23 lung
[28] = tested on: NCI-H460 lung
[29] = tested on: NCI-H522 lung
[30] = tested on: NCI/ADR-RES ovarian
[31] = tested on: OVCAR-4 ovarian
[32] = tested on: OVCAR-5 ovarian
[33] = tested on: OVCAR-8 ovarian
[34] = tested on: PC-3 prostate
[35] = tested on: RPMI-8226 leukemia
[36] = tested on: RXF 393 renal
[37] = tested on: SF-268 CNS
[38] = tested on: SF-295 CNS
[39] = tested on: SF-539 CNS
[40] = tested on: SK-MEL-2 melanoma
[41] = tested on: SK-MEL-28 melanoma
[42] = tested on: SK-MEL-5 melanoma
[43] = tested on: SK-OV-3 ovarian
[44] = tested on: SN12C renal
[45] = tested on: SNB-19 CNS
[46] = tested on: SNB-75 CNS
[47] = tested on: SR leukemia
[48] = tested on: SW-620 colon
[49] = tested on: T-47D breast
[50] = tested on: TK-10 renal
[51] = tested on: U251 CNS
[52] = tested on: UACC-257 melanoma
[53] = tested on: UACC-62 melanoma
[54] = tested on: UO-31 renal
[55] = tested on: HS 578T breast
[56] = tested on: MCF7 breast
[57] = tested on: NCI-H226 lung

CCc1cc(OC(=O)N2CCC(N3CCCCC3)CC2)ccc1Nc1cc(-c2ccc(-n3cccn3)cc2)[nH]n1
3470 nM: TGI [43]
4170 nM: TGI [9]
3210 nM: TGI [23]
2810 nM: TGI [2]
3230 nM: TGI [16]
3710 nM: TGI [44]
4110 nM: TGI [45]
3600 nM: TGI [54]
9890 nM: TGI [30]
5340 nM: TGI [31]
3960 nM: TGI [53]
2890 nM: TGI [36]
4220 nM: TGI [46]
2990 nM: TGI [51]
4600 nM: TGI [47]
4020 nM: TGI [32]
3330 nM: TGI [11] | TGI [40]
3300 nM: TGI [22]
2830 nM: TGI [12] | TGI [13]
21600 nM: TGI [7]
2980 nM: TGI [1]
3270 nM: TGI [8] | TGI [39] | TGI [41]
3100 nM: TGI [4]
4290 nM: TGI [20]
3730 nM: TGI [37]
3160 nM: TGI [28]
3440 nM: TGI [52]
5860 nM: TGI [10]
11000 nM: TGI [26]
4040 nM: TGI [18]
3200 nM: TGI [38]
4520 nM: TGI [14]
3830 nM: TGI [33]
2950 nM: TGI [5]
3120 nM: TGI [42]
3650 nM: TGI [34]
3450 nM: TGI [6] | TGI [50]
3900 nM: TGI [27]
3700 nM: TGI [15]
2740 nM: TGI [17]
inactive: GI50 [1] 1550 nM | GI50 [2] 1400 nM | GI50 [3] 1210 nM | GI50 [4] 1720 nM | GI50 [5] 1580 nM | GI50 [6] 1550 nM | GI50 [7] 2950 nM | GI50 [8] 1790 nM | GI50 [9] 1910 nM | GI50 [10] 2160 nM | GI50 [11] 1750 nM | GI50 [12] 1450 nM | GI50 [13] 1360 nM | GI50 [14] 1710 nM | GI50 [15] 1840 nM | GI50 [16] 1450 nM | GI50 [17] 1270 nM | GI50 [18] 1930 nM | GI50 [19] 1130 nM | GI50 [20] 2110 nM | GI50 [21] 1660 nM | GI50 [22] 1830 nM | GI50 [23] 1670 nM | GI50 [24] 1900 nM | GI50 [25] 1770 nM | GI50 [26] 2160 nM | GI50 [27] 1820 nM | GI50 [28] 1580 nM | GI50 [29] 1850 nM | GI50 [30] 2940 nM | GI50 [31] 2220 nM | GI50 [32] 1830 nM | GI50 [33] 1800 nM | GI50 [34] 1730 nM | GI50 [35] 2030 nM | GI50 [36] 1450 nM | GI50 [37] 1820 nM | GI50 [38] 1660 nM | GI50 [39] 1730 nM | GI50 [40] 1830 nM | GI50 [41] 1730 nM | GI50 [42] 1720 nM | GI50 [43] 1930 nM | GI50 [44] 1840 nM | GI50 [45] 1950 nM | GI50 [46] 1660 nM | GI50 [47] 1490 nM | GI50 [48] 1860 nM | GI50 [49] 1610 nM | GI50 [50] 1410 nM | GI50 [51] 1580 nM | GI50 [52] 1820 nM | GI50 [53] 1920 nM | GI50 [54] 1560 nM
2660 nM: TGI [3]
3170 nM: TGI [21]
5070 nM: TGI [19]
5620 nM: TGI [35]
3340 nM: TGI [25]
3570 nM: TGI [24]
3510 nM: TGI [29] | TGI [48] | TGI [49]

O=[N+]([O-])c1ccc(-c2nnc(SCc3ccc(O)c4ncccc34)n2-c2ccccc2)cc1
5040 nM: TGI [38]
inactive: GI50 [1] 1360 nM | GI50 [2] 2300 nM | GI50 [4] 2030 nM | GI50 [6] 2410 nM | GI50 [7] 507 nM | GI50 [8] 2510 nM | GI50 [9] 442 nM | GI50 [10] 1430 nM | GI50 [11] 1400 nM | GI50 [13] 1050 nM | GI50 [14] 447 nM | GI50 [15] 990 nM | GI50 [17] 3190 nM | GI50 [18] 1560 nM | GI50 [19] 447 nM | GI50 [20] 585 nM | GI50 [22] 493 nM | GI50 [23] 1170 nM | GI50 [24] 1050 nM | GI50 [26] 777 nM | GI50 [57] 4300 nM | GI50 [27] 433 nM | GI50 [30] 7350 nM | GI50 [31] 2120 nM | GI50 [32] 3350 nM | GI50 [35] 695 nM | GI50 [36] 651 nM | GI50 [38] 444 nM | GI50 [41] 715 nM | GI50 [43] 1760 nM | GI50 [48] 479 nM | GI50 [49] 834 nM | GI50 [50] 2860 nM | GI50 [52] 1380 nM | GI50 [53] 2060 nM | GI50 [54] 1950 nM
1820 nM: TGI [40]
> 100000 nM: TGI [3] | TGI [4] | TGI [5] | TGI [6] | TGI [7] | TGI [9] | TGI [10] | TGI [11] | TGI [12] | TGI [13] | TGI [15] | TGI [55] | TGI [17] | TGI [18] | TGI [19] | TGI [20] | TGI [22] | TGI [56] | TGI [25] | TGI [26] | TGI [57] | TGI [27] | TGI [28] | TGI [30] | TGI [31] | TGI [32] | TGI [33] | TGI [34] | TGI [35] | TGI [36] | TGI [37] | TGI [39] | TGI [41] | TGI [44] | TGI [45] | TGI [47] | TGI [48] | TGI [49] | TGI [50] | TGI [51] | TGI [53] | TGI [54]
17000 nM: TGI [2]
active: GI50 [3] 410 nM | GI50 [5] 175 nM | GI50 [12] 127 nM | GI50 [16] 69 nM | GI50 [55] 312 nM | GI50 [56] 325 nM | GI50 [25] 329 nM | GI50 [28] 229 nM | GI50 [29] 253 nM | GI50 [33] 240 nM | GI50 [34] 114 nM | GI50 [37] 360 nM | GI50 [39] 377 nM | GI50 [40] 314 nM | GI50 [42] 363 nM | GI50 [44] 293 nM | GI50 [45] 254 nM | GI50 [47] 420 nM | GI50 [51] 191 nM
8450 nM: TGI [23]
7020 nM: TGI [8]
6350 nM: TGI [43]
4690 nM: TGI [24]
> 26100 nM: TGI [52]
> 84200 nM: TGI [1]
598 nM: TGI [16]
> 29600 nM: TGI [29]
1970 nM: TGI [42]
> 22900 nM: TGI [14]
